According to ChEMBL document CHEMBL1158882, “Yardenone A and B: new cytotoxic triterpenes from the Indian Ocean sponge Axinella cf. bidderi” (J Nat Prod, 2003):
Active and inactive are the calls of the source. No cut-off for these calls is given here.

Key:
[1] = species on record: Homo sapiens; test: (§1) Cytotoxicity against human NSCLC-N6-L16 cells; assay type: functional, cell-based
[2] = as §1; assay type: functional, cell-based

SMILES | Activity [1] | IC50 [2]
C[C@H]1CC[C@@H]2OC(C)(C)C(=O)CC[C@@]2(C)[C@]12CC[C@@H]([C@@]1(C)CC[C@@H]3OC(C)(C)C(=O)CC[C@]31C)O2 | inactive | –
CC1=C(CC[C@H]2[C@]3(C)CCC(=O)C(C)(C)O[C@H]3CC[C@]2(C)O)[C@@]2(C)CCC(=O)C(C)(C)C2=C(O)C1=O [SODWANONE A] | – | 12 µM
C[C@H]1CC[C@@H]2OC(C)(C)C(=O)CC[C@@]2(C)[C@]12C[C@H](O)[C@@H]([C@@]1(C)CC[C@@H]3OC(C)(C)C(=O)CC[C@]31C)O2 [YARDENONE A] | – | > 60 µM
C[C@H]1CC[C@@H]2OC(C)(C)[C@H](O)CC[C@@]2(C)[C@]12C[C@H](O)[C@@H]([C@@]1(C)CC[C@@H]3OC(C)(C)C(=O)CC[C@]31C)O2 [YARDENONE B] | – | > 31 µM
